Experimental data from patent publication US20250051338A1, “TYK2 DEGRADERS AND USES THEREOF” (Kymera Therapeutics, Inc., priority 2021, published 2025).

Columns and labels:
Format in all cases: cell-based
TYK2 [1] = target: T1, TYK2 (Homo sapiens, UniProt P29597); test: TYK2 degradation MSD assay in human PBMC cells; set-up: endogenous in cells; host or cells: human PBMC; conditions: 4 to 24 hours incubation, read-out: TYK2 MSD DC50 rating in human PBMC
Outline: (§1)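 0.4 million cells/well; cpd 9-dose 1:3 titration, top 1–10 μM; 4–24 h, 37° C, 5% CO2; RIPA lysis; TYK2 capture/detection sandwich on MSD, SULFO-TAG anti-rabbit secondary; DC50 via 4-parameter fit.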

TYK2 [2] = target: T1, TYK2; test: TYK2 degradation MSD assay in EBV-B cells; set-up: endogenous in cells; host or cells: EBV-B cells; conditions: 4 to 24 hours incubation, read-out: TYK2 MSD DC50 rating in EBV-B
Outline: as §1

TYK2 [3] = target: T1, TYK2; test: TYK2 degradation MSD assay in OCI-LY10 cells; set-up: endogenous in cells; host or cells: EBV-B cells; conditions: 4 to 24 hours incubation, read-out: TYK2 MSD DC50 rating in OCI-LY10
Outline: as §1

T1 sequence (P29597 whole entry): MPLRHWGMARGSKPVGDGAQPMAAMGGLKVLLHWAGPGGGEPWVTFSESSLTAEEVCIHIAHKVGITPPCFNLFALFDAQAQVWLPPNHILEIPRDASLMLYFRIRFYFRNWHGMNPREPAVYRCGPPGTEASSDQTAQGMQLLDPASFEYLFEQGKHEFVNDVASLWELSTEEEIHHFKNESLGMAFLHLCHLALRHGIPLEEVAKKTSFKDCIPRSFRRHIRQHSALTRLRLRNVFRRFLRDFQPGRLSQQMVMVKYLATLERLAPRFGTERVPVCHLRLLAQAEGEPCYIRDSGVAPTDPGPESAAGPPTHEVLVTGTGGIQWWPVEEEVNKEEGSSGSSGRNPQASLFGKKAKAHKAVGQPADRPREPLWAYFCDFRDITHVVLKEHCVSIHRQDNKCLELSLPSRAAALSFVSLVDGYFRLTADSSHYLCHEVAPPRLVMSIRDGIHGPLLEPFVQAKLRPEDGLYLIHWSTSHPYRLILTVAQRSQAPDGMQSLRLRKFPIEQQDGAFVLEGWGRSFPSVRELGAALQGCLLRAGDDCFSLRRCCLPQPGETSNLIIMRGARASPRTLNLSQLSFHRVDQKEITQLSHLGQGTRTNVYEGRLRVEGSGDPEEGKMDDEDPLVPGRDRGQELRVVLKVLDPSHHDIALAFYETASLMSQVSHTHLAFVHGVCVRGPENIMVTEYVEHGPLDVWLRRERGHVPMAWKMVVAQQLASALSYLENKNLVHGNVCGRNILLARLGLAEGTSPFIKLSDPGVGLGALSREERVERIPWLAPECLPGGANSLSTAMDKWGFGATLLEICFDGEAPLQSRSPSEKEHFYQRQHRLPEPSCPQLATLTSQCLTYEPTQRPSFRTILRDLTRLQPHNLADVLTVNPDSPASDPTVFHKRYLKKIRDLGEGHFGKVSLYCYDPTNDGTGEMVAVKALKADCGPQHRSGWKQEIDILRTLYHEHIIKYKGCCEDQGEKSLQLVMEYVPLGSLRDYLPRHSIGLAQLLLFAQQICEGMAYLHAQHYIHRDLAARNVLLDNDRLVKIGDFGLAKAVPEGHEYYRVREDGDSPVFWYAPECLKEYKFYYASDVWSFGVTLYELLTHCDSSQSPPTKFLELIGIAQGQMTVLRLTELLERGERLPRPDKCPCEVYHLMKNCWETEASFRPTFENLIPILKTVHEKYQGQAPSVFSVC

CNC(=O)c1cnc(Nc2ccc(CN3CC(N(C)c4ccc5c(c4)n(C)c(=O)n5C4CCC(=O)NC4=O)C3)cn2)cc1Nc1cccc(-c2ncc(F)cn2)c1OC (stereo not drawn) [Example K163]
DC50 (TYK2 [1]): > 100 nM
DC50 (TYK2 [2]): > 100 nM
DC50 (TYK2 [3]): > 100 nM

CCNC(=O)c1cnc(Nc2cc(CN3CCN(c4ccc5c(c4)n(C)c(=O)n5C4CCC(=O)NC4=O)CC3)ccn2)cc1Nc1cccc(-c2ncc(F)cn2)c1OC (stereo not drawn) [Example K709]
DC50 (TYK2 [1]): > 100 nM
DC50 (TYK2 [2]): 1 to 10 nM
DC50 (TYK2 [3]): > 100 nM

CNc1cc(Nc2cccc(-c3ccc(CN4CCN(c5ccc(-c6ccc7c(c6)n(C)c(=O)n7C6CCC(=O)NC6=O)cc5)CC4)cn3)c2OC)nn2c(C(=O)N[C@@H]3C[C@@H]3F)cnc12 (stereo partly drawn) [Example K479]
DC50 (TYK2 [1]): > 100 nM
DC50 (TYK2 [2]): < 1 nM
DC50 (TYK2 [3]): < 1 nM

CCNC(=O)c1cnc(Nc2ccc(C(=O)NCCCCc3cccc4c3n(C)c(=O)n4C3CCC(=O)NC3=O)cn2)cc1Nc1cccc(-c2ncc(F)cn2)c1OC (stereo not drawn) [Example K182]
DC50 (TYK2 [1]): 1 to 10 nM
DC50 (TYK2 [2]): 10 to 100 nM
DC50 (TYK2 [3]): > 100 nM

CNc1cc(-c2ccc(C(=O)NCCCCCCc3ccc4c(c3)n(C)c(=O)n4C3CCC(=O)NC3=O)cc2)nn2c(C(=O)N[C@@H]3C[C@@H]3F)cnc12 (stereo partly drawn) [Example K298]
DC50 (TYK2 [1]): > 100 nM
DC50 (TYK2 [2]): > 100 nM
DC50 (TYK2 [3]): > 100 nM

CNC(=O)c1cnc(Nc2ccc(CN3CC(c4ccc5c(c4)n(C)c(=O)n5C4CCC(=O)NC4=O)C3)cn2)cc1Nc1cccc(-c2ncc(F)cn2)c1OC (stereo not drawn) [Example K199]
DC50 (TYK2 [1]): 1 to 10 nM
DC50 (TYK2 [2]): > 100 nM
DC50 (TYK2 [3]): > 100 nM

CNc1cc(Nc2cccn(-c3ccc(C(=O)N(C)CC4CCN(c5ccc6c(c5)n(C)c(=O)n6C5CCC(=O)NC5=O)CC4)cn3)c2=O)nn2c(C(=O)N[C@@H]3C[C@@H]3F)cnc12 (stereo partly drawn) [Example K280]
DC50 (TYK2 [1]): < 1 nM
DC50 (TYK2 [2]): < 1 nM
DC50 (TYK2 [3]): > 100 nM

CNc1cc(-c2cn(C)c3c(-c4ccc(CN5CCN(c6ccc(-c7ccc8c(c7)n(C)c(=O)n8C7CCC(=O)NC7=O)cc6)CC5)cc4)cccc23)nn2c(C(=O)N[C@@H]3C[C@@H]3F)cnc12 (stereo partly drawn) [Example K532]
DC50 (TYK2 [1]): > 100 nM
DC50 (TYK2 [2]): > 100 nM
DC50 (TYK2 [3]): > 100 nM

CNc1cc(Nc2cccn(-c3ccc(C(=O)NCCCCc4ccc5c(c4)n(C)c(=O)n5C4CCC(=O)NC4=O)cn3)c2=O)nn2c(C(=O)NC3CC3)cnc12 (stereo not drawn) [Example K322]
DC50 (TYK2 [1]): > 100 nM
DC50 (TYK2 [2]): > 100 nM
DC50 (TYK2 [3]): > 100 nM

CNc1cc(Nc2cccn(-c3ccc(C(=O)NC4CCC(C(=O)N5CCC6(CN(CC#Cc7ccc8c(c7)n(C)c(=O)n8C7CCC(=O)NC7=O)C6)C5)CC4)cn3)c2=O)nn2c(C(=O)N[C@@H]3C[C@@H]3F)cnc12 (stereo partly drawn) [Example K444]
DC50 (TYK2 [1]): 1 to 10 nM
DC50 (TYK2 [2]): 1 to 10 nM
DC50 (TYK2 [3]): 1 to 10 nM

CNc1cc(-c2ccc(C(=O)NCCCCc3cccc4c3n(C)c(=O)n4C3CCC(=O)NC3=O)cc2)nn2c(C(=O)N[C@@H]3C[C@@H]3F)cnc12 (stereo partly drawn) [Example K299]
DC50 (TYK2 [1]): > 100 nM
DC50 (TYK2 [2]): > 100 nM
DC50 (TYK2 [3]): > 100 nM

CNC(=O)c1cnc(Nc2ccc(CN3CCC(CN(C)c4ccc5c(c4)n(C)c(=O)n5C4CCC(=O)NC4=O)CC3)cn2)cc1Nc1cccc(-c2ncc(F)cn2)c1OC (stereo not drawn) [Example K147]
DC50 (TYK2 [1]): 1 to 10 nM
DC50 (TYK2 [2]): < 1 nM
DC50 (TYK2 [3]): > 100 nM

Cn1c(=O)n(C2CCC(=O)NC2=O)c2ccc(CN3CCC(CNc4cc(Nc5cccn(-c6ccccn6)c5=O)nn5c(C(=O)N[C@@H]6C[C@@H]6F)cnc45)CC3)cc21 (stereo partly drawn) [Example K360]
DC50 (TYK2 [1]): > 100 nM
DC50 (TYK2 [2]): > 100 nM
DC50 (TYK2 [3]): > 100 nM

CNc1cc(Nc2cccc(-c3ccc(C(=O)N4CCC(CN5CCN(c6ccc(-c7ccc8c(c7)n(C)c(=O)n8C7CCC(=O)NC7=O)cc6)CC5)CC4)cn3)c2OC)nn2c(C(=O)N[C@@H]3C[C@@H]3F)cnc12 (stereo partly drawn) [Example K629]
DC50 (TYK2 [1]): > 100 nM
DC50 (TYK2 [2]): > 100 nM
DC50 (TYK2 [3]): < 1 nM

CNc1cc(Nc2cccn(-c3cc(C(=O)NCCCCCCCCCCc4cccc5c4n(C)c(=O)n5C4CCC(=O)NC4=O)ccn3)c2=O)nn2c(C(=O)N[C@@H]3C[C@@H]3F)cnc12 (stereo partly drawn) [Example K234]
DC50 (TYK2 [1]): > 100 nM
DC50 (TYK2 [2]): > 100 nM
DC50 (TYK2 [3]): > 100 nM

CNc1cc(Nc2cccn(-c3cccc(C(=O)NCCCCCCc4ccc5c(c4)n(C)c(=O)n5C4CCC(=O)NC4=O)c3)c2=O)nn2c(C(=O)N[C@@H]3C[C@@H]3F)cnc12 (stereo partly drawn) [Example K221]
DC50 (TYK2 [1]): > 100 nM
DC50 (TYK2 [2]): > 100 nM
DC50 (TYK2 [3]): > 100 nM

CNc1cc(Nc2cccn(-c3ccc(C(=O)N(C)C4CCC(N5CCN(c6ccc7c(c6)n(C)c(=O)n7C6CCC(=O)NC6=O)CC5)CC4)cn3)c2=O)nn2c(C(=O)N[C@@H]3C[C@@H]3F)cnc12 (stereo partly drawn) [Example K427]
DC50 (TYK2 [1]): > 100 nM
DC50 (TYK2 [2]): > 100 nM
DC50 (TYK2 [3]): < 1 nM

CNc1cc(Nc2cccc(-c3ccc(CN4CCN(c5cccc6c(N7CCC(=O)NC7=O)cncc56)CC4)cn3)c2)nn2c(C(=O)N[C@@H]3C[C@@H]3F)cnc12 [Example K467]
DC50 (TYK2 [1]): > 100 nM
DC50 (TYK2 [2]): 10 to 100 nM
DC50 (TYK2 [3]): > 100 nM
